Experiments:
Assay type in all cases: cell-based
Escherichia coli = test: Kirby-Bauer disk diffusion growth inhibition, Escherichia coli; conditions: 100 μl on 10 mm disk, 18 hours 37° C.; for zone of inhibition at 0.125 µg/mL / zone of inhibition at 1000 µg/mL: Escherichia coli; for zone of inhibition at 0.125 µg/mL: read-out: Zone of inhibition Escherichia coli; for zone of inhibition at 1000 µg/mL: 1 mg/ml in DMSO
Procedure: (§1) The compounds disclosed herein were tested for growth inhibition against four strains of bacteria: Escherichia coli, Staphylococcus aureus, methicillin-resistant Staphylococcus aureus, and Bacillus subtilis. […] They represent […]. E. coli is a gram-negative, non-spore forming, rod-shaped, opportunistic pathogen that resides in the human digestive tract. S. aureus is a gram positive coccus, is usually found morphologically as a […], and is an opportunistic human pathogen, often residing on or in the skin. B. subtilis is a gram positive spore-forming rod. Its native environment is the soil. The chemicals were tested for growth-inhibition of the bacteria by the Kirby-Bauer method. See, e.g., Microbiology, third edition; Lansing M. Prescott, John P. Harley, and Donald A. Klein; Wm. C. Brown Publishers.
(§2) Mueller-Hinton agar (Difco Lab, Michigan) was prepared according to the manufacturer's directions, and 20 ml was dispensed in each sterile petri dish. Sterile nutrient broth (Difco Lab, Michigan) was also prepared according to the manufacturer's directions.
(§3) Bacteria were grown in liquid nutrient broth for 18 hours at 37° C. until they were turbid.
(§4) An aliquot of 0.5 ml of cultured bacteria was aseptically transferred to the surface of a Mueller-Hinton agar plat, and spread using a cotton-tipped swab. Plates were then allowed to dry for 5 minutes. Then a 10 mm diameter filter paper disk impregnated with the test chemical was placed with sterile forceps on the plate. The disks were impregnated with 100 μl of a solution of the test compound in DMSO or in water, at the indicated concentrations in Table 1.
(§5) The zones of inhibition were measured after 18 hours growth at 37° C. Tests were done in triplicate.
(§6) Additional compounds were tested for activity against E. coli, laboratory strain S. aureus (not methicillin resistant), and B. subtilis. The compounds were tested by the disk diffusion method, as in Example 1, with application of a 10 mg/mil solution of the test compound in DMSO.

Staphylococcus aureus = test: Kirby-Bauer disk diffusion growth inhibition, Staphylococcus aureus; conditions: 100 μl on 10 mm disk, 18 hours 37° C.; for zone of inhibition at 0.125 µg/mL / zone of inhibition at 1000 µg/mL: Staphylococcus aureus; for zone of inhibition at 0.125 µg/mL: read-out: Zone of inhibition Staphylococcus aureus; for zone of inhibition at 1000 µg/mL: 1 mg/ml in DMSO
Procedure: as §1, §2, §3, §4, §5, §6
Derivatives of lupeol were tested for inhibition of bacterial growth using the Kirby-Bauer disk diffusion method and by growth in liquid culture. For the disk diffusion method, compounds were dissolved in DMSO and 100 μl was added to the 10 mm filter paper disk. The amount of compound applied to the disk varied. The amount applied for each compound was as follows: lupeol (50 μg), lupeol-3-maleate (15 μg), lupeol-3-thiodiglycolate (15 μg), lupeol-3-dimethyl succinate (60 μg), lupeol-3-phosphate (30 μg), lupenone (50 μg), lupenon-3-oxime (50 μg), lupeol-3-amine (50 μg), lupenon-1,2-ene-2-ol (50 μg). In liquid culture, the compounds were dissolved in DMSO at 1 mg/ml and then 100 μl was added to 7 ml of sterile broth, along with a 1/200 dilution of freshly grown bacterial liquid culture.

Bacillus subtilis = test: Kirby-Bauer disk diffusion growth inhibition, Bacillus subtilis; conditions: 100 μl on 10 mm disk, 18 hours 37° C.; for zone of inhibition at 0.125 µg/mL / zone of inhibition at 1000 µg/mL: Bacillus subtilis; for zone of inhibition at 0.125 µg/mL: read-out: Zone of inhibition Bacillus subtilis; for zone of inhibition at 1000 µg/mL: 1 mg/ml in DMSO
Procedure: as §1, §2, §3, §4, §5, §6

| Compound | zone of inhibition at 0.125 µg/mL (Escherichia coli; 125 ng/ml in water) [mm] | zone of inhibition at 0.125 µg/mL (Staphylococcus aureus; 125 ng/ml in water) [mm] | zone of inhibition at 0.125 µg/mL (Bacillus subtilis; 125 ng/ml in water) [mm] | Zone of inhibition Escherichia coli (Escherichia coli; 125 ng/ml in water) [mm] | Zone of inhibition Staphylococcus aureus (Staphylococcus aureus; 125 ng/ml in water) [mm] | Zone of inhibition Bacillus subtilis (Bacillus subtilis; 125 ng/ml in water) [mm] | also measured |
| --- | --- | --- | --- | --- | --- | --- | --- |
| CC1(C)CCC23CC[C@@]4(C)C(CCC5[C@@]6(C)CCC(=O)C(C)(C)C6CC[C@]54C)C2C1OC3 (stereo partly drawn) [Allobetulon] | 0 | 0 | 0 |  |  |  |  |
| Betulin 3,28-maleate |  |  |  |  |  |  | Zone of inhibition Escherichia coli (Escherichia coli; 20 mg/ml in DMSO): 0 mm; Zone of inhibition Staphylococcus aureus (Staphylococcus aureus; 20 mg/ml in DMSO): 0 mm; Zone of inhibition Bacillus subtilis (Bacillus subtilis; 20 mg/ml in DMSO): 0 mm |
| C=C(C)C1CCC2(COC(=O)CCC(=O)O)CC[C@@]3(C)C(CCC4[C@@]5(C)CCC(O)C(C)(C)C5CC[C@]43C)C12 (stereo partly drawn) [Betulin 28-succinate, Betulin-28-succinate] |  |  |  |  |  |  | zone of inhibition at 1000 µg/mL (Escherichia coli): 0 mm; zone of inhibition at 1000 µg/mL (Staphylococcus aureus): 0 mm; zone of inhibition at 1000 µg/mL (Bacillus subtilis): 0 mm |
| CC1(C)CCC23CCC4(C)C(CCC5C6(C)CCC(OC(=O)CCCC(=O)O)C(C)(C)C6CCC54C)C2C1OC3 (stereo not drawn) [Allobetulin 3-glutarate, Allobetulin-3-glutarate] | 0 | 0 | 0 |  |  |  | zone of inhibition at 1000 µg/mL (Escherichia coli): 0 mm; zone of inhibition at 1000 µg/mL (Staphylococcus aureus): 0 mm; zone of inhibition at 1000 µg/mL (Bacillus subtilis): 0 mm |
| Betulin diglycolate |  |  |  | 10.0 | 0 | 0 |  |
| Allobetulin-3-phthalate [Allobetulin 3-phthalate] |  |  |  | 0 | 0 | 0 |  |
| CC1(C)CCC23CC[C@@]4(C)C(CCC5[C@@]6(C)CCC(OP(=O)(O)O)C(C)(C)C6CC[C@]54C)C2C1OC3 (stereo partly drawn) [Allobetulin 3-phosphate, allobetulin-3-phosphate] | 0 | 0 | 0 |  |  |  |  |
| Allobetulin ethanol amine |  |  |  | 0 | 0 | 0 |  |
| CC1(C)CCC23CC[C@@]4(C)C(CCC5[C@@]6(C)CCC(OP(=O)(O)O)C(C)(C)C6CC[C@]54C)C2C1OC3=O (stereo partly drawn) [Allobetulin lactone phosphate, allobetulin lactone-3-phosphate] |  |  |  | 0 | 0 | 0 |  |
| C=C(C)C1CCC2(COC(=O)C(N)Cc3ccccc3)CCC3(C)C(CCC4C5(C)CCC(OC(=O)C(N)Cc6ccccc6)C(C)(C)C5CCC43C)C12 (stereo not drawn) [Betulin-3,28-diphenylalanine ester] |  |  |  | 0 | 0 | 0 |  |
| C=C(C)C1CCC2(C)CCC3(C)C(CCC4C5(C)CCC(OC(=O)CCC(=O)O)C(C)(C)C5CCC43C)C12 (stereo not drawn) [Lupeol-3-succinate] | 0 | 0 | 0 |  |  |  |  |
| Poly (ethylene glycol) bis (carboxymethyl) ester |  |  |  | 0 | 0 | 0 |  |
| C=C(C)[C@@H]1CC[C@]2(COC(=O)[C@@H]3CCCN3)CC[C@]3(C)[C@H](CC[C@@H]4[C@@]5(C)CC[C@H](OC(=O)[C@@H]6CCCN6)C(C)(C)[C@@H]5CC[C@]43C)[C@@H]12 [Betulin Di-(L-proline) ester] |  |  |  | 0 | 0 | 0 |  |

Source: patent publication US6689767B2, “Triterpenes having antibacterial activity” (Regents of the University of Minnesota, priority 2000, dated 2004)
